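48-hour exposure; five concentrations; linearly interpolated endpoints. Here, GI50 denotes the concentration required for 50% inhibition of growth.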 The source made the active and inactive calls. No stated cut-off is given here; in the data, active = GI50 up to about 1.1 µM and inactive = higher.
Legend:
Experiment in all cases: NCI anticancer screen, dose series, 48 h
PC-3 = tested on: PC-3
SNB-19 = tested on: SNB-19
U-251 = tested on: U-251
K562 = tested on: K562
TK-10 = tested on: TK-10
SW-620 = tested on: SW-620
KM12 = tested on: KM12
SF-295 = tested on: SF-295
SK-MEL-5 = tested on: SK-MEL-5
UACC-62 = tested on: UACC-62
OVCAR-5 = tested on: OVCAR-5
SF-539 = tested on: SF-539
MOLT-4 = tested on: MOLT-4
A549 = tested on: A549
NCI-H23 = tested on: NCI-H23
CAKI-1 = tested on: CAKI-1
HCC 2998 = tested on: HCC 2998
SK-OV-3 = tested on: SK-OV-3
HOP-62 = tested on: HOP-62
LOX IMVI = tested on: LOX IMVI
Hs-578T = tested on: Hs-578T
COLO 205 = tested on: COLO 205
SN12C = tested on: SN12C
OVCAR-3 = tested on: OVCAR-3
UO-31 = tested on: UO-31
UACC-257 = tested on: UACC-257
EKVX = tested on: EKVX
HL-60 = tested on: HL-60
NCI-H226 = tested on: NCI-H226
OVCAR-4 = tested on: OVCAR-4
NCI-H522 = tested on: NCI-H522
MDA-MB-231 = tested on: MDA-MB-231
MDA-N = tested on: MDA-N
SK-MEL-28 = tested on: SK-MEL-28
IGROV-1 = tested on: IGROV-1
OVCAR-8 = tested on: OVCAR-8
CCRF-CEM = tested on: CCRF-CEM
MDA-MB-435 = tested on: MDA-MB-435
NCI/ADR-RES = tested on: NCI/ADR-RES
SK-MEL-2 = tested on: SK-MEL-2
NCI-H460 = tested on: NCI-H460
MCF7 = tested on: MCF7
786-0 = tested on: 786-0
ACHN = tested on: ACHN
SR = tested on: SR
HT-29 = tested on: HT-29
SNB-75 = tested on: SNB-75
RPMI-8226 = tested on: RPMI-8226
DU-145 = tested on: DU-145
RXF 393 = tested on: RXF 393
M14 = tested on: M14
HCT-116 = tested on: HCT-116
HOP-92 = tested on: HOP-92
SF-268 = tested on: SF-268
T47D = tested on: T47D
HCT-15 = tested on: HCT-15

For `Cc1ccc(S(=O)(=O)NC2C(=O)c3ccccc3C(=O)C2n2ccnc2)cc1` (stereo unspecified), the GI50 (PC-3) was > 100 µM (inactive), the GI50 (SNB-19) was > 100 µM (inactive) and the GI50 (U-251) was > 100 µM (inactive). The GI50 (K562) was > 100 µM (inactive), the GI50 (TK-10) was > 100 µM (inactive) and the GI50 (SW-620) was > 100 µM (inactive). For the same molecule, the GI50 (KM12) was > 100 µM (inactive), the GI50 (SF-295) was > 100 µM (inactive) and the GI50 (SK-MEL-5) was 48.5 µM (inactive). The GI50 (UACC-62) was 33.1 µM (inactive), the GI50 (OVCAR-5) was > 100 µM (inactive) and the GI50 (SF-539) was > 100 µM (inactive). The GI50 (MOLT-4) was 25.7 µM (inactive), the GI50 (A549) was > 100 µM (inactive) and the GI50 (NCI-H23) was 25.4 µM (inactive). The GI50 (CAKI-1) was > 100 µM (inactive), the GI50 (HCC 2998) was > 100 µM (inactive) and the GI50 (SK-OV-3) was > 100 µM (inactive). For the same molecule, the GI50 (HOP-62) was > 100 µM (inactive), the GI50 (LOX IMVI) was 12.2 µM (inactive) and the GI50 (Hs-578T) was > 100 µM (inactive). The GI50 (COLO 205) was 71 µM (inactive), the GI50 (SN12C) was 15 µM (inactive) and the GI50 (OVCAR-3) was 42.5 µM (inactive). For the same molecule, the GI50 (UO-31) was > 100 µM (inactive), the GI50 (UACC-257) was > 100 µM (inactive) and the GI50 (EKVX) was > 100 µM (inactive). The GI50 (HL-60) was 18.6 µM (inactive), the GI50 (NCI-H226) was > 100 µM (inactive) and the GI50 (OVCAR-4) was 30.9 µM (inactive). The GI50 (NCI-H522) was < 0.01 µM (active), the GI50 (MDA-MB-231) was 16 µM (inactive) and the GI50 (MDA-N) was 15.4 µM (inactive). For the same molecule, the GI50 (SK-MEL-28) was > 100 µM (inactive), the GI50 (IGROV-1) was > 100 µM (inactive) and the GI50 (OVCAR-8) was > 100 µM (inactive). The GI50 (CCRF-CEM) was 20 µM (inactive), the GI50 (MDA-MB-435) was 17.9 µM (inactive) and the GI50 (NCI/ADR-RES) was > 100 µM (inactive). For the same molecule, the GI50 (SK-MEL-2) was > 100 µM (inactive), the GI50 (NCI-H460) was > 100 µM (inactive) and the GI50 (MCF7) was > 100 µM (inactive). The GI50 (786-0) was 17.4 µM (inactive), the GI50 (ACHN) was > 100 µM (inactive) and the GI50 (SR) was 67.8 µM (inactive). The GI50 (HT-29) was > 100 µM (inactive), the GI50 (SNB-75) was > 100 µM (inactive) and the GI50 (RPMI-8226) was > 100 µM (inactive). For the same molecule, the GI50 (DU-145) was 17 µM (inactive), the GI50 (RXF 393) was 31.2 µM (inactive) and the GI50 (M14) was > 100 µM (inactive). For the same molecule, the GI50 (HCT-116) was 20.4 µM (inactive), the GI50 (HOP-92) was 35.8 µM (inactive) and the GI50 (SF-268) was > 100 µM (inactive). The GI50 (T47D) was 17.5 µM (inactive) and the GI50 (HCT-15) was greater than 100 µM.
